From patent US11524950B2, “Treatment of immune-related and inflammatory diseases” (Celgene Corporation, priority 2012, dated 2022)

Legend:
[1] = system: IgG; assay: IgG production in normal B cell / PBMC differentiation cultures (ELISA); details: Homo sapiens
[2] = system: IgM; assay: IgM production by SLE patient PBMC (ELISA); details: Homo sapiens, read-out: IgM IC50 (nM) SLE (n = 3)
[3] = system: IgG; assay: IgG production by SLE patient PBMC (ELISA); details: Homo sapiens, read-out: IgG IC50 (nM) SLE (n = 3)
[4] = target: T1, CRBN (Homo sapiens, UniProt Q96SW2); assay: Competitive CRBN binding with thalidomide analog-conjugated beads (U266 extracts); details: preincubation at 3 uM
T1 construct: endogenous in cells; host or cells: U266 multiple myeloma cells (cell extracts)
Experimental: Binding studies to CRBN were conducted using thalidomide analog-conjugated beads in a competitive assay. […] Affinity beads coupled to a thalidomide acid analog were incubated with the U266 extracts and, after extensive washing of the beads, the bound proteins were eluted. CRBN binding to the thalidomide-coupled affinity beads was determined by quantitative CRBN immunoblot determination.

[5] = system: IL-2; assay: T-cell costimulation: IL-2 production (immobilized anti-CD3, ELISA); assay type: cell-based; details: Homo sapiens, 48 h, read-out: EC50 for co-stimulated IL-2 production by T cells
Experimental: CRBN ubiquitination was measured in HEK293T cells, which were transfected with an amino-terminal His-biotin-tagged CRBN construct, then preincubated with compounds for one hour followed by treatment with the MG132 proteasome inhibitor (to arrest degradation of ubiquitinated proteins). Cells were lysed and processed to measure CRBN ubiquitination by SDS-PAGE and immunoblot analysis using an anti-ubiquitin antibody. Cell proliferation studies were conducted in enalidomide-sensitive and refractory multiple myeloma cells. […] T-cell costimulation was measured in purified primary human T cells stimulated using immobilized anti-CD3 antibody in cell culture for 2 days, and cytokine secretion was measured by ELISA.

[6] = system: IgM; assay: IgM production in normal PBMC differentiation cultures (ELISA); details: Homo sapiens, read-out: IgM IC50 (nM) Normal (n = 3)
[7] = system: DBA/2 mice; assay: Bleomycin-induced dermal fibrosis mouse model (prevention); assay type: in vivo; details: 50 mg/kg, IP, QD, p<0.0001
Experimental: (§1) DBA/2 mice were used in this study. Eight animals were used per treatment group in the study. Mice were kept in the animal house under standard conditions with food and water ad libidum.
The vehicle, 0.5% carboxymethyl cellulose (CMC)/0.25% Tween 80, was prepared in distilled H2O and dissolved overnight on a magnetic stirrer (add 0.5 g CMC; Sigma #C9481) and 0.25 ml Tween 80 (Sigma #P8074) to 99.75 ml to make a total of 100 ml 0.5% CMC/0.25% Tween 80).
(§2) The compound was suspended, not dissolved, in this vehicle. The formulation was homogenized with a Teflon pestle and mortar (Potter-Elvehjem tissue grinder) using a motorized Eberbach tissue homogenizer. The daily drug stock concentration used in these studies was 3 mg/ml.
(§3) Bleomycin was obtained from the pharmacy of the University of Erlangen-Nuremberg and freshly prepared once a week. Skin fibrosis was induced in 6-week-old DBA mice by local intracutaneous injections of 100 μl of bleomycin dissolved in 0.9% NaCl, at a concentration of 0.5 mg/ml, every other day in defined areas of 1.5 cm^2 on the upper back.
The mouse model of bleomycin induced dermal fibrosis is widely used to evaluate anti-fibrotic therapeutics. In this model, a localized dermal fibrosis is induced by intradermal injections with bleomycin every other day for 3 weeks. This model resembles early, inflammatory stages of SSc. To evaluate potential effects on prevention of fibrosis, treatment was initiated simultaneously with the first bleomycin injection. […] Treatment consisted of administration of the vehicle (0.5% CMC/0.25% Tween 80). • Untreated bleomycin group: Intradermal injection of bleomycin for three weeks. […] Injection of Imatinib (50 mg/kg; IP, QD). […] See Akhmetshina A. et al., Arthritis Rheum 2009; 60(1):219-224.
(§4) Dermal thickness was determined by staining with hematoxylin and eosin and activated fibroblasts by using immunohistochemistry for alpha smooth muscle actin (α-SMA). The dermal thickness, as determined by the modified Rodnan Skin Score, is currently the most common primary outcome in human clinical trials for anti-fibrotic agents in SSc. […] Dermal thickness was analyzed with a Nikon Eclipse 80i microscope (Nikon, Badhoevedorp, The Netherlands) by measuring the maximal distance between the epidermal-dermal junction and the dermal-subcutaneous fat junction at 4 different skin sections in each mouse. […]
(§5) For quantification of myofibroblasts, skin sections were deparaffinized and incubated with 5% bovine serum albumin for 60 minutes. Cells positive for α-SMA were detected by incubation with monoclonal anti-α-SMA antibodies (clone 1A4; Sigma-Aldrich, Steinheim, Germany) for 2 hours at room temperature followed by incubation with 3% hydrogen peroxide for 10 minutes. […]

[8] = system: Tsk-1 mouse; assay: Tight skin-1 (Tsk-1) mouse model: hypodermal thickness and hydroxyproline; assay type: in vivo; details: 50 mg/kg; p≤0.001
From the text: First, the inhibitory effects of the compound on fibrosis in the Tsk-1 tight skin mouse model were also investigated.

[9] = system: DBA/2 mice; assay: Bleomycin-induced dermal fibrosis mouse model (regression of established fibrosis); assay type: in vivo; details: 50 mg/kg, p<0.0001
Experimental: as §1, §2, §3
To evaluate regression of fibrosis, a modified model of bleomycin induced dermal fibrosis was used. Mice were pre-challenged with bleomycin to induce a robust skin fibrosis. One group received treatment with the test compound, while challenge with bleomycin was ongoing for additional three weeks. The outcome of this group was compared to mice challenged with bleomycin for six weeks (prevention of further progression) and to mice challenged with bleomycin for three weeks followed by NaCl for additional three weeks (induction of regression). The following groups were used in the regression study: • Control group: Intradermal injection of NaCl for six weeks. Control treatment consisted of administration of the vehicle. • Untreated bleomycin group 1 (regression): Intradermal injection of bleomycin for three weeks followed by intradermal injections of NaCl for another three weeks. Treatment consisted of administration of the vehicle. […]
as §4, §5

[10] = PBMC, read-out: IgG IC50 (nM) Normal (n = 3)

| SMILES | IC50 [1, 10] | IC50 ([1]; read-out: IgG production IC50) | IC50 [2] | IC50 [3] | IC50 [6] | further results |
| --- | --- | --- | --- | --- | --- | --- |
| Nc1cccc2c1C(=O)N(C1CCC(=O)NC1=O)C2=O (stereo not drawn) [pomalidomide] | 63 nM | 49 nM | 3.8 nM | 19 nM | 17 nM | less CRBN bound to the affinity beads [4]: approximately 50%; EC50 [5]: 10 nM |
| CCOc1cc([C@@H](CS(C)(=O)=O)N2C(=O)c3cccc(NC(C)=O)c3C2=O)ccc1OC [apremilast] | > 10000 nM | – | > 10000 nM | > 10000 nM | > 10000 nM | – |
| Cc1ccc(NC(=O)c2ccc(CN3CCN(C)CC3)cc2)cc1Nc1nccc(-c2cccnc2)n1 [Imatinib, reference compound] | – | – | – | – | – | reduction of dermal thickening ([7]; 3 weeks): 60±0.34%; reduction of myofibroblast numbers [7]: 81±0.11%; reduction of collagen content of the skin (hydroxyproline levels) [8]: 67%; reduction of hypodermal thickening [8]: 58%; reduction of bleomycin induced dermal thickness [9]: 50±0.3%; reduction of myofibroblast numbers [9]: 78±0.15% |
| Nc1cccc2c1CN(C1CCC(=O)NC1=O)C2=O (stereo not drawn) [lenalidomide] | – | 320 nM | – | – | – | – |
